System: C. neoformans ATCC 56991
Assay: Checkerboard MIC assay, FICI
Type: cell-based, Cryptococcus neoformans
Details: combination with Compound 1
Description: The following assay was used to determine the minimum inhibitory concentration (MIC) and fractional inhibitory concentration index (FICI) for combinations of an antifungal agent and a glycopeptide antibacterial agent. This assay and methods for calculating FICI are well known in the art. See, for example, Eliopoulos, E. G. and R. Moellering, Jr. “Antimicrobial Combinations” in Antibiotics in Laboratory Medicine, edited by V. Lorian, 4th Ed., Williams & Wilkins, Baltimore, MD, pp. 330-396 (1996); […] et al., Antimicrobial Agents and Chemotherapy 47(4):1416-1418 (2003); or […] et al., Antimicrobial Agents and Chemotherapy 46(10):3323-3326 (2002). […] The MIC of the glycopeptide antibacterial agent determined from this experiment was used in FIC calculations. […]

Structure (SMILES) | FICI
C[C@@H]1[C@H](O)[C@@H](C)/C=C/C=C/C=C/C=C/C=C/C=C/C=C/[C@H](O[C@@H]2O[C@H](C)[C@@H](O)[C@H](N)[C@@H]2O)C[C@@H]2O[C@](O)(C[C@@H](O)C[C@@H](O)[C@H](O)CC[C@@H](O)C[C@@H](O)CC(=O)O[C@H]1C)C[C@H](O)[C@H]2C(=O)O [Amphotericin B] | 0.25
C[C@@H]1[C@H](O)[C@@H](C)/C=C/C=C/CC/C=C/C=C/C=C/C=C/C(O[C@H]2O[C@H](C)[C@@H](O)[C@H](N)[C@@H]2O)CC2O[C@](O)(CC(O)C(O)CCC(O)CC(O)CC(O)CC(=O)O[C@H]1C)CC(O)C2C(=O)O (some centres unmarked) [Nystatin] | 0.5

Reference: patent US7521418B2, “Use of a polyene macrolide antifungal agent in combination with a glycopeptide antibacterial agent” (Theravance, Inc., priority 2003, dated 2009)
